Experimental data from ChEMBL document CHEMBL4190380, “Preliminary in vitro and in vivo investigation of a potent platelet derived growth factor receptor (PDGFR) family kinase inhibitor” (Bioorg Med Chem Lett, 2018).
Active and inactive are the calls of the source. No cut-off for these calls is given here.

Experiments:
P815 [1] = assay: Cytotoxicity in mouse P815 cells expressing KIT D814Y mutant assessed as reduction in cell viability incubated for 48 hrs by MTT assay; assay type: functional, cell-based; conditions: P815, 48 h
[2] = target: Platelet-derived growth factor receptor beta (Homo sapiens, UniProt P09619); assay: Binding affinity to PDGFRbeta (unknown origin)
Platelet-derived growth factor receptor beta, sequence (P09619 whole entry): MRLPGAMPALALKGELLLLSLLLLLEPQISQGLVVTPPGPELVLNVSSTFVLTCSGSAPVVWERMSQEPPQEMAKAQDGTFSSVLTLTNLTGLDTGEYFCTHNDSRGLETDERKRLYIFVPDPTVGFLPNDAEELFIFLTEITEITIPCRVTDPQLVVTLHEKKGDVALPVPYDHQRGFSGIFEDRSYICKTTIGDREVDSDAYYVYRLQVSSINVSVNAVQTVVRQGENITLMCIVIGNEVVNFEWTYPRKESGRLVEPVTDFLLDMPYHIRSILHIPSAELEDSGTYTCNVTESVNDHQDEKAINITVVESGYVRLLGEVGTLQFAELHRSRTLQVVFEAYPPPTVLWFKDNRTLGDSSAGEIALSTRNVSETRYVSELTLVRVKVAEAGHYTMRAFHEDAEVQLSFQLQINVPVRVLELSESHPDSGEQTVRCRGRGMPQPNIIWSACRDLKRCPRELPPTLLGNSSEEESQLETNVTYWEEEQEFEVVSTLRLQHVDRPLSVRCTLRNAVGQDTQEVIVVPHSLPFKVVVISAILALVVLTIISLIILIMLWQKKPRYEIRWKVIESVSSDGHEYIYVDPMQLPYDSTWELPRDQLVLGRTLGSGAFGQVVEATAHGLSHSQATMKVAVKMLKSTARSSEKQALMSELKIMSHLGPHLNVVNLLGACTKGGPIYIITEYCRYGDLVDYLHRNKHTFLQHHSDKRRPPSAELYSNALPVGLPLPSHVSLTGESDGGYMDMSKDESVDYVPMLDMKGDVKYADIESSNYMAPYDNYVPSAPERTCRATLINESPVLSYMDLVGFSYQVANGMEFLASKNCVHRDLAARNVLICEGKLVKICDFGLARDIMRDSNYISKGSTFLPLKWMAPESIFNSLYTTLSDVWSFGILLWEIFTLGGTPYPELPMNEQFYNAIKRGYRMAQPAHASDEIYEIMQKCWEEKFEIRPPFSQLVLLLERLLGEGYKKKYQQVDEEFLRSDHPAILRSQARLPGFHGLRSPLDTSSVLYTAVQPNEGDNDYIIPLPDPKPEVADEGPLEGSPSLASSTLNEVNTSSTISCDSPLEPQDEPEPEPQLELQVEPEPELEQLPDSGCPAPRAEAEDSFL

[3] = tested on: Mast/stem cell growth factor receptor Kit (Mus musculus), P05532 [D814Y]; assay: Inhibition of KIT D814Y mutant in mouse P815 cells assessed as reduction in STAT3 Tyr705 phosphorylation at 500 nM to 5 uM by Western blot method; assay type: cell-based
Mast/stem cell growth factor receptor Kit (Mus musculus), P05532 [D814Y], sequence (P05532 with tags, fused parts or gaps D814Y): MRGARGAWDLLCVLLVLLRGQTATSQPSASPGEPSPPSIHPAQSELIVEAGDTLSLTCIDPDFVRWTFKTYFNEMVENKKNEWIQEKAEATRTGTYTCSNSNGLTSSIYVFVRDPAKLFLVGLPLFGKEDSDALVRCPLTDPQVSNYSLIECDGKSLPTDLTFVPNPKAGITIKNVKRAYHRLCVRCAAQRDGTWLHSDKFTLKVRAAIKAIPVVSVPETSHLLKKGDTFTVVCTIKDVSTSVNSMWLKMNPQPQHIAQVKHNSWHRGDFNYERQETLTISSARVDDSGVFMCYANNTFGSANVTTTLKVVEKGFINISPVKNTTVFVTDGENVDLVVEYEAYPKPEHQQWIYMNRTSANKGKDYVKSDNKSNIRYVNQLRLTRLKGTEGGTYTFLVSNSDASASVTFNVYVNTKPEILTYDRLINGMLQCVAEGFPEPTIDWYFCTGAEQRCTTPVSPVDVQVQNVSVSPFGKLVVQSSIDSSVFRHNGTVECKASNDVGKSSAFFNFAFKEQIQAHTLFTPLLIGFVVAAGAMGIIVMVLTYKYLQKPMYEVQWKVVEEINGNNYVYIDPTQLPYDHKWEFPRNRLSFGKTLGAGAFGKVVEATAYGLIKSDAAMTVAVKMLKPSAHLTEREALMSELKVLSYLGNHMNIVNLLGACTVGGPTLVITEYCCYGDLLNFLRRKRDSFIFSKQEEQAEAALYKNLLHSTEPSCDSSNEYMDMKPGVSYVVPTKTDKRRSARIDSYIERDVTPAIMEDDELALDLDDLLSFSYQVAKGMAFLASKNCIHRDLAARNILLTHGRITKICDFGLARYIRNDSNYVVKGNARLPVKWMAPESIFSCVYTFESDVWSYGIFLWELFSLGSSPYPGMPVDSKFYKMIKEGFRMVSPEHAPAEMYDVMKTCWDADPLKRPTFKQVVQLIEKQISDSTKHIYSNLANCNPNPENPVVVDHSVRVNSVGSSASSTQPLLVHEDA

P815 [4] = assay: Toxicity in mouse P815 cells expressing KIT D814Y mutant assessed as reduction in total STAT3 protein level at 5 uM by Western blot method; assay type: cell-based; conditions: p815, 5 µM
P815 [5] = assay: Induction of apoptosis in mouse P815 cells expressing KIT D814Y mutant assessed as reduction in pro-caspase-3 protein level at 500 nM to 5 uM by Western blot method; assay type: functional, cell-based
Mus musculus [6] = assay: Toxicity in C57BL/6 mouse assessed as body weight loss at 75 mg/kg, ip for 17 days; assay type: organism-based; conditions: in vivo, 408 h
Mus musculus [7] = assay: Toxicity in C57BL/6 mouse assessed as induction of mouse mortality at 400 mg/kg, ip for 17 days measured on day 0; assay type: organism-based; conditions: in vivo, 408 h
Mus musculus [8] = assay: In-vivo suppression of PDGFR signalling in C57BL/6 mouse assessed as retardation of hair re-growth at 75 mg/kg, ip administered once daily for 17 days by photography; assay type: functional, organism-based
Mus musculus [9] = assay: In-vivo suppression of KIT signalling in C57BL/6 mouse assessed as hair depigmentation at 75 mg/kg, ip administered once daily for 17 days by photography; assay type: functional, organism-based

COc1cc2c(N3CCN(C(=O)Nc4ccc(OC(C)C)cc4)CC3)ncnc2cc1OCCCN1CCCCC1 [TANDUTINIB]
IC50 (P815 [1]): 0.6 µM

COCCOc1cc2ncnc(N3CCN(c4ncc(Cc5ccccc5)cn4)CC3)c2cc1OCCOC
Kd [2]: 0.008 µM | IC50 (P815 [1]): 0.182 µM | inhibition [3]: Active | Activity (P815 [4]): Toxic | Activity (P815 [5]): Dose-dependent effect | Activity (Mus musculus [6]): 10% | Activity (Mus musculus [7]): Toxic | Activity (Mus musculus [8]): Active | Activity (Mus musculus [9]): inactive
